Source: patent US6881719B2, “β-turn peptidomimetic cyclic compounds” (McGill University, priority 2000, dated 2005)

Assays:
[1] = molecular target: T1, NIH3T3 fibroblasts expressing TrkC (Homo sapiens, UniProt Q16288); assay: Cell survival (MTT), NIH-TrkC; assay type: cell-based; conditions: for NIH-TrkC % Protection: 72 hours
T1 construct: expressed in transfected cells; host or cells: NIH3T3 fibroblasts
Description: (§1) The 4-3.6 cells are B104 cells stably transfected with human trkA cDNA, and express equal levels of p75 and TrkA (TrkA+ p75+). For screening agents that activate or antagonize TrkC receptors, NIH3T3 fibroblasts were stably transfected with human TrkC cDNA. These cells respond to the ligand NT-3. For screening agents that activate or antagonize TrkA receptors, NIH3T3 fibroblasts were stably transfected with human TrkA cDNA. These cells respond to the ligand NGF.
(§2) Cell lines: 5,000 cells/well in protein-free media (PFHM-II, GIBCO, Toronto) containing 0.2% bovine serum albumin (BSA) (Crystalline fraction V, Sigma, St. Louis, Mo.) were seeded in 96 well plates (Falcon, Mississauga, Ontario). The cultures were untreated, or treated with the indicated test or control ligands. Cell viability was quantitated using the MTT assay after 56-72 hours of culture. […] The OD of untreated cells were subtracted. The higher optical density of untreated primary cultures is likely due to cellular heterogeneity and to endogenous production of limiting amounts of growth factors.

[2] = molecular target: T2, NIH3T3 fibroblasts expressing TrkA (Homo sapiens, UniProt P04629); assay: Cell survival (MTT), NIH-TrkA; assay type: cell-based; conditions: for NIH-TrkA % Protection: 72 hours;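 for NIH-TrkA % Protection: 100% equals survival with optimal NGF at 1 nM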
T2 construct: expressed in transfected cells; host or cells: NIH3T3 fibroblasts
T2 sequence (P04629 33-796): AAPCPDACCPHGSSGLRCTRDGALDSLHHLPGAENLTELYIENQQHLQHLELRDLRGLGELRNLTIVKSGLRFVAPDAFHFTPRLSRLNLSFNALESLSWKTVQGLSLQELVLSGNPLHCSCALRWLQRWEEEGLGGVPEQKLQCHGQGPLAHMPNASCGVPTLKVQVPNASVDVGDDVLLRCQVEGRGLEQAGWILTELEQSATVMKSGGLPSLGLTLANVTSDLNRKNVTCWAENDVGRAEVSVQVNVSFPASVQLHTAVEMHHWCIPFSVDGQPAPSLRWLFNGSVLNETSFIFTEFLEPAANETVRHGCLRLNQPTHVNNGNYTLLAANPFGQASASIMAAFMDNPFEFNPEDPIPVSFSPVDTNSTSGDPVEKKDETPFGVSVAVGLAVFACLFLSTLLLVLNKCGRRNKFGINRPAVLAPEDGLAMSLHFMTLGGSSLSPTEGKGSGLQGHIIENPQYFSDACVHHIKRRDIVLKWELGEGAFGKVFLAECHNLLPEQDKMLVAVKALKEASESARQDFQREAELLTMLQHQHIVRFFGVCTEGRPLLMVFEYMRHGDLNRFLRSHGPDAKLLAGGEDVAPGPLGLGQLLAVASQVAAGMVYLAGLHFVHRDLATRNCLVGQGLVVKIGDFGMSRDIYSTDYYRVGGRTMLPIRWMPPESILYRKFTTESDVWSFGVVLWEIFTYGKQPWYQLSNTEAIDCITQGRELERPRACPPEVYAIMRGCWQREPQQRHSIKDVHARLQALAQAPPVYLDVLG
Description: The 4-3.6 cells are B104 cells stably transfected with human trkA cDNA, and express equal levels of p75 and TrkA (TrkA+ p75+). For screening agents that activate or antagonize TrkC receptors, NIH3T3 fibroblasts were stably transfected with human TrkC cDNA. […] For screening agents that activate or antagonize TrkA receptors, NIH3T3 fibroblasts were stably transfected with human TrkA cDNA.
(§3) Cell lines: 5,000 cells/well in protein-free media (PFHM-II, GIBCO, Toronto) containing 0.2% bovine serum albumin (BSA) (Crystalline fraction V, Sigma, St. Louis, Mo.) were seeded in 96 well plates (Falcon, Mississauga, Ontario). The cultures were untreated, or treated with the indicated test or control ligands. Cell viability was quantitated using the MTT assay after 56-72 hours of culture. […] The OD of untreated cells were subtracted.

4-3.6 cells (p75+TrkA+) = assay: Cell survival (MTT), 4-3.6 cells; assay type: cell-based, rat; conditions: 72 hours;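 for % Protection: 100% equals survival with optimal NGF at 1 nM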
Description: as §1, §2

TrkA-ECD = molecular target: T3, TrkA-ECD (Homo sapiens, UniProt P04629); assay: ELISA and RIA binding assays of NGF•TrkA-ECD
T3 construct: pure soluble TrkA extracellular domain (TrkA-ECD) produced in baculovirus; made in house
T3 sequence (P04629 33-423 limits assumed): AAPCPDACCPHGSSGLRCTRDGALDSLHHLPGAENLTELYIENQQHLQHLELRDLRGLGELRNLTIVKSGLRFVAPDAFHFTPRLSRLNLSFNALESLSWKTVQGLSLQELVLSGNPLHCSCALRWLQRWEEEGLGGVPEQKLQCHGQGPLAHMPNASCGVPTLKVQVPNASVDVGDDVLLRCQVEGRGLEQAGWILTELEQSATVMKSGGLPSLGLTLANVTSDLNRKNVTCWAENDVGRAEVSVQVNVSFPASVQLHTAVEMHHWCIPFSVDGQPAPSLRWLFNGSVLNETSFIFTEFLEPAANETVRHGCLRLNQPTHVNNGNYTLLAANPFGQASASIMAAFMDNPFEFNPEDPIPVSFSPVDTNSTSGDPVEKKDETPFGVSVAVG

B104 cells (p75+ TrkA-) = assay: FACScan binding of D3-biotin to B104 cells; parameters: species or system rat; conditions: D3-biotin 20 μM + D3 200 μM as competitor
[3] = test system: TrkB-expressing HEK293 cells; assay: Cell survival control, TrkB-expressing HEK293 cells; assay type: cell-based
Method: as §2

[4] = molecular target: T4, TrkA•TrkA homodimers (4-3.6 cells) (Homo sapiens, UniProt P04629); assay: Detection of putative TrkA•TrkA homodimers by cross-linking and western blot; assay type: cell-based
T4 construct: expressed in transfected cells
T4 sequence (P04629 33-796): as the sequence (P04629 33-796) above
Method: In FIG. 2, 4-3.6 cells were exposed to TrkA ligands as per Table 5 (lanes 1-4) or no ligand (lanes 5 and 6), and chemically cross-linked (lanes 1-5) or not cross-linked (lane 6). Cell lysates were western blotted with anti-TrkA 203 antisera.
Live 4-3.6 cells suspended in PBS were treated with the indicated ligand(s) for 40 min at 4° C. to allow binding. Cells were then washed in PBS, cross-linked with the membrane impermeable cross-linker disuccinimidyl suberate (DSS, Pierce; 1 mM DSS, 15 minutes at 15° C.). Unreacted DSS was quenched with 5 mM ammonium acetate. Then cells were either lysed directly in SDS sample buffer (whole cell lysate), or lysed in non-ionic detergent NP-40 and immunoprecipitated with anti-Trk or anti-p75 antibodies as described (LeSauteur et al., 1996). […] For western blot analysis, equal amounts of protein or cell equivalents for each sample were resolved in a 5-10% SDS-PAGE gradient, transferred to nitrocellulose membranes (Xymotech Biosystems, Montréal, Qc), and blotted with anti-Trk polyclonal antibody 203 that recognizes the intracellular domain of Trk. Blots were visualized using the enhanced chemiluminescence (ECL) system (New England Nuclear, Boston, Mass.).

p75 NGF receptor subunit = molecular target: T5, p75 NGF receptor subunit (Rattus norvegicus, UniProt P07174); assay: FACScan competition of anti-p75 mAb MC192 binding on 4-3.6 cells; conditions: mAb 1 nM; competitor 40 μM
T5 construct: B104 rat neuroblastomas express p75 receptors; endogenous in cells
T5 sequence (P07174 30-425): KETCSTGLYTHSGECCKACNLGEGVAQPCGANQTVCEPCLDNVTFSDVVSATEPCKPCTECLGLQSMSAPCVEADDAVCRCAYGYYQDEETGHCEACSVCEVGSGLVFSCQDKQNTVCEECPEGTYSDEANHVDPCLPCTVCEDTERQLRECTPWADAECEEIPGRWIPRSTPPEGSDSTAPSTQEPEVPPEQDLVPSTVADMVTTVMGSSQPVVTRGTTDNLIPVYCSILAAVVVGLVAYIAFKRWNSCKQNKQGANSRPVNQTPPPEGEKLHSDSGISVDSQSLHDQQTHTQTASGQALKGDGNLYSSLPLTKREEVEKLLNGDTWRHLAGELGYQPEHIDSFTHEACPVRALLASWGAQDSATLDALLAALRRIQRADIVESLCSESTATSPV
Description: as §1
FACScan binding assays: 4-3.6 cells (2×10^5) in FACScan binding buffer (PBS, 0.5% BSA, and 0.1% NaN3) were immunostained as described (Saragovi et al., 1998). Saturating anti-TrkA mAb 5C3, or anti-p75 mAb MC192, or control non-binding IgGs were added to cells for 1 hour at 4° C., in the presence or absence of D3 as competitor. Excess primary antibody was washed off, and cells were immunostained with fluorescinated goat-anti-mouse IgG secondary antibody. Cells were acquired on a FACScan and mean channel fluorescence of bell-shaped histograms were analyzed using the LYSIS II program.

[5] = molecular target: T6, HEK 293 cells expressing TrkB/TrkA IgG-C2 chimeric receptor (Homo sapiens, UniProt P04629+Q16620); assay: Cell survival (MTT), HEK 293-TrkB/TrkA IgG-C2 chimera; assay type: cell-based; conditions: HEK 293-TrkB/TrkA chimera, 72 hours;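 for % Protection: 100% equals survival with optimal NGF at 1 nM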
T6 construct: The IgG-C2 domain of human TrkA was generated using unique restriction sites; expressed in transfected cells
T6 sequence (P04629 299-365 limits assumed, change not shown, one chain of several): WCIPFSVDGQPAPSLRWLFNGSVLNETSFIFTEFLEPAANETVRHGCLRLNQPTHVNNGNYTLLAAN
Description: The IgG-C2 domain of human TrkA was generated using unique restriction sites in the primers to allow exchange with the corresponding rat TrkB domain. The chimeric receptors were constructed by subcloning the human TrkA IgG-C2 domain into the corresponding restriction sites of the rat trkB cDNA reported in a previous work (Perez et al., 1995). Chimeric constructs were confirmed by sequencing, and were cloned into the pCDNA3 expression vector that contains a selection gene providing resistance to neomycin (G418, GIBCO). HEK293 cells were transfected using the lipofectamine plus method (GIBCO), selected with neomycin (0.5 mg/ml) and at least 3 independent subclones were obtained by limiting dilution techniques (293-TrkB/A-IgC2 chimera).
as §3

[6] = test system: wild type NIH3T3 fibroblasts; assay: Cell survival (MTT), NIH wt; assay type: cell-based; conditions: 72 hours
Description: as §1, §2

T1 sequence (Q16288 32-839): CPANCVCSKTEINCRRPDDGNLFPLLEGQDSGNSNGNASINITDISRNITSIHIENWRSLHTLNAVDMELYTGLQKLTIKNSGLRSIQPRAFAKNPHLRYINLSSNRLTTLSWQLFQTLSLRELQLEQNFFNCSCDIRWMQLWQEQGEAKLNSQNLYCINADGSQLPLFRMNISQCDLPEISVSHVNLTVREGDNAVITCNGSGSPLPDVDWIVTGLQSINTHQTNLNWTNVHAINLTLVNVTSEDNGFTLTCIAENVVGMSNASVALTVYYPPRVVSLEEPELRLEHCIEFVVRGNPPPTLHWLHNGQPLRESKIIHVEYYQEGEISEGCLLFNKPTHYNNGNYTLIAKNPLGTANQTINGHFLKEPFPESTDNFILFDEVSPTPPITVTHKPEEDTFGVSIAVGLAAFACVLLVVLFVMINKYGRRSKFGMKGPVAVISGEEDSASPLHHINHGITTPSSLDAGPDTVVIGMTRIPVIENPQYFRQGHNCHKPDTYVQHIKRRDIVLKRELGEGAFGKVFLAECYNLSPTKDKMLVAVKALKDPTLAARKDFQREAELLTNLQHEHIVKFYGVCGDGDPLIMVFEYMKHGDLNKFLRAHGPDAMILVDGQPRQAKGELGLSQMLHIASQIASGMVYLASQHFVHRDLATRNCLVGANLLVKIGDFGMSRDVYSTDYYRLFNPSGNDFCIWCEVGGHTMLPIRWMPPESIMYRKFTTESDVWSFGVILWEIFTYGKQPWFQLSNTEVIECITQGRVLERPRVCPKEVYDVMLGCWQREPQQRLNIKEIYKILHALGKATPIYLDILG

NCCCC[C@@H]1NC(=O)[C@H](CCC(=O)O)NC(=O)c2cc([N+](=O)[O-])ccc2OCCC(C(=O)NCC(=O)O)NC1=O (stereo partly shown) [D3, EKHse-G-OH]
enhancement of NT-3 protection ([1]; NIH3T3 cells stably transfected with trkC cDNA): did not enhance NT-3 protection | NIH-TrkC % Protection ([1]; agent 10 μM + 10 pM NGF): 6 ± 2% | NIH-TrkC % Protection ([1]; agent 10 μM alone): 3 ± 3% | enhancement of NGF protection ([2]; NIH3T3 cells stably transfected with TrkA cDNA): enhanced NGF protection | NIH-TrkA % Protection ([2]; agent 10 μM + 10 pM NGF): 51 ± 5% | NIH-TrkA % Protection ([2]; agent 10 μM alone): 8 ± 4% | % Protection (4-3.6 cells (p75+TrkA+); compound 10 μM + 10 pM NGF): 55 ± 3% | Optical Density (4-3.6 cells (p75+TrkA+); compound 10 μM + 10 pM NGF): 255 ± 14 | % Protection (4-3.6 cells (p75+TrkA+); compound 10 μM alone): 8 ± 2% | Optical Density (4-3.6 cells (p75+TrkA+); compound 10 μM alone): 95 ± 9 | blocking of NGF•TrkA-ECD interactions (TrkA-ECD): did not substantially block | MCF (mean channel fluorescence) (B104 cells (p75+ TrkA-)): 11 ± 2 | protection from apoptosis [3]: neither D3 nor NGF protected | intensity of the Mr 300 kDa band (TrkA dimers), standardized to 1 nM NGF (100%) ([4]; 10 pM NGF + 10 μM D3): 77±7% | intensity of the Mr 300 kDa band (TrkA dimers), standardized to 1 nM NGF (100%) ([4]; 10 μM D3 alone): 21±4% | % Maximal binding of mAb MC192 (p75 NGF receptor subunit): 101 ± 2% | % Protection ([5]; compound 10 μM + 10 pM NGF): 42 ± 5% | Optical Density ([5]; compound 10 μM + 10 pM NGF): 165 ± 11 | % Protection ([5]; compound 10 μM alone): 9 ± 3% | Optical Density ([5]; compound 10 μM alone): 69 ± 7 | NIH wt % Protection ([6]; agent 10 μM + 10 pM NGF): 0 ± 3% | NIH wt % Protection ([6]; agent 10 μM alone): −3 ± 5%
